Values of other authors as cited in US20170224835A1, “Antibody Drug Conjugates” (priority 2015, published 2017).
Like-named read-outs stand apart in the source and are kept apart here.

Assays:
[1] = in vitro

For COc1cccc2c1C(=O)c1c(O)c3c(c(O)c1C2=O)C[C@@](O)(C(=O)CO)C[C@@H]3O[C@H]1C[C@H](N2CCO[C@H](OC)C2)[C@H](O)[C@H](C)O1 [Nemorubicin, (8S,10S)-6,8,11-trihydroxy-10-((2R,4S,5S,6S)-5-hydroxy-4-((S)-2-methoxymorpholino)-6-methyltetrahydro-2H-pyran-2-yloxy)-8-(2-hydroxyacetyl)-1-methoxy-7,8,9,10-tetrahydrotetracene-5,12-dione], the “cytotoxicity / cell killing compared with other anthracyclines” value [1] is listed as “more potent cell killing property”.
For COc1cccc2c1C(=O)c1c(O)c3c(c(O)c1C2=O)C[C@@](O)(C(=O)CO)C[C@@H]3O[C@H]1C[C@H]2[C@H](O[C@@H]3[C@@H](OC)OCCN32)[C@H](C)O1 [PNU-159682, 3′-deamino-3″,4′-anhydro-[2″(S)-methoxy-3″(R)-oxy-4″-morpholinyl]doxorubicin], the “efficacy in in vivo tumor models” value (in vivo tumor models) is given as “effective”, the “cytotoxicity / cell killing compared with other anthracyclines” value [1] is given as “significantly more cytotoxic than Nemorubicin” and the “cytotoxicity / cell killing compared with other anthracyclines” value ([1]; listed as PNU (159682)) is given as “more cytotoxic than nemorubicin and doxorubicin”.
